# Laboratory results reported in PubChem BioAssay AID588661 (The Scripps Research Institute Molecular Screening Center, 2011).
# Activity calls are given as the source filed them.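 The calls were made as follows: active = KLF5 protein level in colon cancer cells lowered or raised by 30% or more versus solvent-only cells; inactive = the rest.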
# Experiments:
# [1] = test system: SW620 cells, KLF5 protein western blot, 24 h; assay: KLF5 protein abundance by immunoblot – western blot, chemiluminescence, SW620 colorectal cells, counter-screen for KLF5 inhibitor project, late-stage follow-up (AID 588661); settings: measured here: KLF5 protein fold change vs DMSO; at 10 µM
# [2] = molecular target: Krueppel-like factor 5 (Homo sapiens) (UniProt Q13887); assay: as above; settings: SW620 cells, KLF5 protein western blot, 24 h; at 10 µM; stronger effect = higher value
# Krueppel-like factor 5 (Homo sapiens), sequence (Q13887 whole entry, looked up): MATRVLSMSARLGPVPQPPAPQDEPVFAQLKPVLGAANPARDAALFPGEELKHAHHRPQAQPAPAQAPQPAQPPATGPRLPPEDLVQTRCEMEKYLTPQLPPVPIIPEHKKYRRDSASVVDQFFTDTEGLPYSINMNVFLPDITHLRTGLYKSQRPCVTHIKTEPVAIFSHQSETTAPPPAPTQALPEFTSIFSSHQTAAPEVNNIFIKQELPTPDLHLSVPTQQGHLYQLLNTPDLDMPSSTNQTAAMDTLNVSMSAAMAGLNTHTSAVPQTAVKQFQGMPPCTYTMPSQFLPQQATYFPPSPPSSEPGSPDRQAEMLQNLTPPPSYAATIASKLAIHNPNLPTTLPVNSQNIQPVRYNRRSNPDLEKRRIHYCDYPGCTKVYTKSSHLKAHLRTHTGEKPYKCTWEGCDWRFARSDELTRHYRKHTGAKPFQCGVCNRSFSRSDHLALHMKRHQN
compound,measurement,setting,value
CN(C(=O)COC(=O)/C=C/c1cccc([N+](=O)[O-])c1)C1CCS(=O)(=O)C1 (configuration not stated),signed fold change vs DMSO (negative = decrease),[1],-1.08
same,inhibition,[2],7.48% (inactive)
